The text below walks through data of ChEMBL document CHEMBL5226286, “The application of isatin-based multicomponent-reactions in the quest for new bioactive and druglike molecules” (Eur J Med Chem, 2021).

In test [1] the test system is Mycobacterium tuberculosis variant bovis. The test can be described thus: Antimycobacterial activity against active stage of Mycobacterium bovis BCG ATCC 35743 assessed as minimum inhibitory concentration by NR assay. The test is classed as functional.
Test [2] shares this test system. The test can be described thus: Antimycobacterial activity against dormant stage of Mycobacterium bovis BCG ATCC 35743 assessed as minimum inhibitory concentration by NR assay. The test is classed as functional.

≈ marks a conversion by molar mass, not a printed value.

As for `Cc1ccc(Cn2cc(CN3C(=O)C4(C(C#N)=C(N)Oc5cc(C)oc(=O)c54)c4cc(Cl)ccc43)nn2)cc1` (stereo not drawn), the minimal inhibitory concentration (MIC) was 5.24 µg/mL (≈ 9.69 µM) in test [1] and 5.23 µg/mL (≈ 9.67 µM) in test [2].
Consider `Cc1cc2c(c(=O)o1)C1(C(=O)N(Cc3cn(Cc4ccc(Cl)cc4)nn3)c3ccc(Br)cc31)C(C#N)=C(N)O2` (stereo not drawn), for which the minimum inhibitory concentration (MIC) in test [1] was 4.12 µg/mL (≈ 6.8 µM); in test [2], 3.97 µg/mL (≈ 6.55 µM).
On to `Cc1ccc(Cn2cc(CN3C(=O)C4(C(C#N)=C(N)Oc5cc(C)oc(=O)c54)c4ccccc43)nn2)cc1` (stereo not drawn), for which the minimal inhibitory concentration (MIC) was 7.42 µg/mL (≈ 14.6 µM) in test [1] and 5.36 µg/mL (≈ 10.6 µM) in test [2].
As to `Cc1cc2c(c(=O)o1)C1(C(=O)N(Cc3cn(Cc4ccc(Cl)cc4)nn3)c3ccccc31)C(C#N)=C(N)O2` (stereo not drawn), the minimum inhibitory concentration (MIC) in test [1] was found to be 2.97 µg/mL (≈ 5.64 µM); in test [2], 4.35 µg/mL (≈ 8.26 µM).
In the case of `Cc1cc2c(c(=O)o1)C1(C(=O)N(Cc3cn(Cc4ccc(Cl)cc4)nn3)c3ccc(Cl)cc31)C(C#N)=C(N)O2` (stereo not drawn), the MIC in test [1] worked out at 3.04 µg/mL (≈ 5.42 µM); in test [2], 7.73 µg/mL (≈ 13.8 µM).
On to `CC1(C)CC(=O)C2=C(C1)OC(N)=C(C#N)C21C(=O)N(Cc2cn(Cc3ccc(Cl)cc3)nn2)c2ccc(Cl)cc21` (stereo not drawn), for which the MIC in test [1] was 2.87 µg/mL (≈ 4.99 µM); in test [2], 3.09 µg/mL (≈ 5.37 µM).
The matching figures for `Cc1ccc(Cn2cc(CN3C(=O)C4(C(C#N)=C(N)OC5=C4C(=O)CC(C)(C)C5)c4cc(Br)ccc43)nn2)cc1` (stereo not drawn): 2.87 µg/mL (≈ 4.79 µM) and 6.23 µg/mL (≈ 10.4 µM).
On to `CC1(C)CC(=O)C2=C(C1)OC(N)=C(C#N)C21C(=O)N(Cc2cn(Cc3ccc(Cl)cc3)nn2)c2ccc(Br)cc21` (stereo not drawn), for which the minimal inhibitory concentration (MIC) in test [1] turned out to be 4.32 µg/mL (≈ 6.97 µM); in test [2], 3.16 µg/mL (≈ 5.1 µM).
For `CO[C@H]1/C=C/O[C@@]2(C)Oc3c(C)c(O)c4c(O)c(c(/C=N/N5CCN(C)CC5)c(O)c4c3C2=O)NC(=O)/C(C)=C\C=C\[C@H](C)[C@H](O)[C@@H](C)[C@@H](O)[C@@H](C)[C@H](OC(C)=O)[C@@H]1C` [RIFAMPIN], the MIC in test [1] was found to be 0.45 µg/mL (≈ 0.547 µM); in test [2] it was 0.81 µg/mL (≈ 0.984 µM).

For orientation: MIC means the smallest concentration in the dilution series that meets the test's criterion for growth inhibition.
